Patent EP0552765B1, “Benzimidazoles, pharmaceutical compositions containing them and process for their preparation” (Dr. Karl Thomae GmbH, priority 1992, dated 1993)
Counter-ions that a name gives are not always drawn.

These molecules were tested against Angiotensin II-Rezeptor (assay: Angiotensin II receptor binding (displacement of [125I]-Angiotensin II from rat lung homogenate)). Conditions: Rattenlunge homogenate; 50 pM [125I]-Angiotensin II; 60 Min. at 37°C; IC50 from dose-response curve.
Design: species or system Ratte
Experimental: Methodenbeschreibung Angiotensin II-Rezeptorbindung
Das Gewebe (Rattenlunge) wird in Tris-Puffer (50 mMol Tris, 150 mMol NaCl, 5 mMol EDTA, pH 7.40) homogenisiert und zweimal je 20 Min. bei 20.000 x g zentrifugiert. Das endgültige Pellet wird in Inkubations-Puffer (50 mMol Tris, 5 mMol MgCl2, 0,2 % BSA, pH 7,40) 1:75, bezogen auf das Feuchtgewicht des Gewebes, resuspendiert. Je 0,1 ml Homogenat wird für 60 Min. bei 37°C mit 50 pM [125^I]-Angiotensin II (NEN, Dreieich, FRG) und steigenden Konzentrationen der Testsubstanz in einem Gesamtvolumen von 0,25 ml inkubiert. Die Inkubation wird durch rasche Filtration durch Glasfiber-Filtermatten beendet. Die Filter werden je 4 ml eiskaltem Puffer (25 mMol Tris, 2.5 mMol MgCl2, 0,1 % BSA, pH 7,40) gewaschen. Die gebundene Radioaktivität wird in einem Gamma-Counter ermittelt. Aus der Dosis-Wirkungskurve wird der entsprechende IC50-Wert ermittelt.
With CCCc1nc2c(C)cc(-c3cn(C4CCCCCC4)cn3)cc2n1Cc1ccc(-c2ccccc2C(=O)O)cc1 [Substanz E, 4'-[(2-n-Propyl-4-methyl-6-(1-cycloheptyl-imidazol-4-yl)-benzimidazol-1-yl)-methyl]-biphenyl-2-carbonsäure] the IC50 was 15 nM.
CCCc1nc2c(C)cc(-c3cn(CCCN(C)C)cn3)cc2n1Cc1ccc(-c2ccccc2C(=O)O)cc1 [Substanz G, 4'-[(2-n-Propyl-4-methyl-6-(1-(3-dimethylaminopropyl)-imidazol-4-yl)-benzimidazol-1-yl)-methyl]-biphenyl-2-carbonsäure-dihydrochlorid-pentahydrat] showed an IC50 of 1.3 nM.
For CCCc1nc2c(C)cc(-c3cn(CC(N)=O)cn3)cc2n1Cc1ccc(-c2ccccc2C(=O)O)cc1 [Substanz F, 4'-[(2-n-Propyl-4-methyl-6-(1-aminocarbonylmethyl-imidazol-4-yl)-benzimidazol-1-yl)-methyl]-biphenyl-2-carbonsäure], the IC50 was 3.4 nM.
Work on CCOc1nc2ccc(-c3cn(C(C)C)cn3)cc2n1Cc1ccc(-c2ccccc2C(=O)O)cc1 [Substanz D, 4'-[(2-Ethoxy-6-(1-isopropyl-imidazol-4-yl)-benzimidazol-1-yl)-methyl]-biphenyl-2-carbonsäure] yielded an IC50 of 10 nM.
CCCc1nc2c(C)cc(-c3cn(C)cn3)cc2n1Cc1ccc(-c2ccccc2C(=O)O)cc1 [Substanz A, 4'-[(2-n-Propyl-4-methyl-6-(1-methyl-imidazol-4-yl)-benzimidazol-1-yl)-methyl]-biphenyl-2-carbonsäure, reference compound] showed an IC50 of 1.2 nM.
CCCc1nc2c(C)cc(-c3coc(C)n3)cc2n1Cc1ccc(-c2ccccc2C(=O)O)cc1 [Substanz C, 4'-[(2-n-Propyl-4-methyl-6-(2-methyl-oxazol-4-yl)-benzimidazol-1-yl)-methyl]-biphenyl-2-carbonsäure] gave an IC50 of 40 nM.
